22 molecules from patent publication US11944626B2, “Small molecule inhibitors of ALDH and uses thereof” (The Regents of the University of Michigan, priority 2016, dated 2024) can be followed below.

SMILES strings stand for the structures.

One data set deals with T1, ALDH2 (Homo sapiens, UniProt P05091).
T1 sequence (P05091 18-517): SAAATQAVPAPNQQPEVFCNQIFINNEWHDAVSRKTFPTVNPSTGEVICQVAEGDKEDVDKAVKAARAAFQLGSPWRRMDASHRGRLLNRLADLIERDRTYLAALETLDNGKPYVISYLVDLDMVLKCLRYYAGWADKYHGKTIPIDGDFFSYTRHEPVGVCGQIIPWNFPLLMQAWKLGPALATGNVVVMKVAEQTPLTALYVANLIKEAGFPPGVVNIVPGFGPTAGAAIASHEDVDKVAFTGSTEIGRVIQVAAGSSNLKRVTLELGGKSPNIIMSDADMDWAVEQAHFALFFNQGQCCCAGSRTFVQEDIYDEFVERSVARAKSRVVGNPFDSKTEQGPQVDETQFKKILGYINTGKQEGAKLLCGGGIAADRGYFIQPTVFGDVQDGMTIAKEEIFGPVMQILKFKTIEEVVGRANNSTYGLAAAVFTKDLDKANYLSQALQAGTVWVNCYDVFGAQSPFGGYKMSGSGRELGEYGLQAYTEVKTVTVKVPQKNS
Briefly: Inhibition of ALDH isoenzymes (NAD(P)H formation at 340 nm, purified recombinant enzyme). Type of data set: biochemical. Set-up: key to ALDH2 inhibition at 20 μM (N.I.): N.I.: No inhibition at 20 μM. Conditions: compound at 20 μM; for remaining activity at 20 µM: read-out: ALDH2 % Control at 20 μM.

The next data set has as its system OVSAHO. Kind of data set: OVSAHO Cell Viability. Type of data set: cell-based. Conditions: for OVSAHO Cell Viability (30 μM) % CD133 + % ctrl / OVSAHO Cell Viability (50 μM) % CD133 + % ctrl: CD133+ cells; for OVSAHO Cell Viability (30 μM) Total Cell % ctrl / OVSAHO Cell Viability (50 μM) Total Cell % ctrl: total cells.
In a further data set the target is T2, ALDH1A2 (Homo sapiens, UniProt O94788).
T2 sequence (O94788 1-518): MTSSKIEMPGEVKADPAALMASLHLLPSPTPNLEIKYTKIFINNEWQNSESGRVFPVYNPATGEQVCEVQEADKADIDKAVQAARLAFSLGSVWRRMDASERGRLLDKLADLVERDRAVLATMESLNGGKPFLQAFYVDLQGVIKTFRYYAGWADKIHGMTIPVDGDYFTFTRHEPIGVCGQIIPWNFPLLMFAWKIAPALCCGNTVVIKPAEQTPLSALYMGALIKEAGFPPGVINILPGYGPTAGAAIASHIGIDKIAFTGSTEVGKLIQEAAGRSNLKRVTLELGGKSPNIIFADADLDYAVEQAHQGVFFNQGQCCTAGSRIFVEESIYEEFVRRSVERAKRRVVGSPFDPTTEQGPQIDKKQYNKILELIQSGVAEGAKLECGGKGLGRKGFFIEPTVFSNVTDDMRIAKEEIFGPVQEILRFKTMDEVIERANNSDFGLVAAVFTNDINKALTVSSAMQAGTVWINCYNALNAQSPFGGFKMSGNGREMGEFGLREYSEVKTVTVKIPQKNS
Kind of data set: Inhibition of ALDH isoenzymes (NAD(P)H formation at 340 nm, purified recombinant enzyme). To be noted: for remaining activity at 20 µM: compound at 20 μM, read-out: ALDH1A2 % Control at 20 μM. Format: biochemical.

Another data set addresses T3, ALDH1A1 (Homo sapiens, UniProt P00352).
T3 sequence (P00352 1-501): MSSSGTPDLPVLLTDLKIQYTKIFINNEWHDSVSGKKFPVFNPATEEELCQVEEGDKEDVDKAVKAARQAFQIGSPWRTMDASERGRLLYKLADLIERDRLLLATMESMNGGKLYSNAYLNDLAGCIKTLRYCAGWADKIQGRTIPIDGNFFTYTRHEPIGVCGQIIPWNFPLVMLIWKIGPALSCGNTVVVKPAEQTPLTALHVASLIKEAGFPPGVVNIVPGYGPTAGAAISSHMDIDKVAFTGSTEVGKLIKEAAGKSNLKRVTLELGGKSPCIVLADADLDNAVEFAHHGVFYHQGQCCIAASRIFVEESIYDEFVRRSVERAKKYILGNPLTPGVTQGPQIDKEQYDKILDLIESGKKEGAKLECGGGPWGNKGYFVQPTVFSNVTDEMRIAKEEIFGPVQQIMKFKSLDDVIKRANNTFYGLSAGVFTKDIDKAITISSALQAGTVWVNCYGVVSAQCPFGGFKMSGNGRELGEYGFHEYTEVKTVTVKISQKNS
Described as above. Format: biochemical. To be noted: for remaining activity at 20 µM: compound at 20 μM, read-out: ALDH1A1 % Control at 20 μM.

[1] abbreviates: 100-200 nM enzyme, 200 μM NAD+, 100 μM propionaldehyde, pH 7.5, 25° C.
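Throughout, for ALDH2 % Control at 20 μM: run at 25 °C, started by adding substrate after 2 min preincubation, with 100-200 nM ALDH2, 200 µM NAD+, 100 µM propionaldehyde, 1% DMSO in BES buffer pH 7.5.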
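Throughout, for ALDH2 inhibition at 20 μM (N.I.): run at 25 °C, started by adding substrate after 2 min preincubation, with 100-200 nM ALDH2, 200 µM NAD+, 100 µM propionaldehyde, 1% DMSO in BES buffer pH 7.5.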

As to `CC(Sc1nc2c(cnn2C)c(=O)n1-c1ccccc1)c1ccccc1` (racemic) [Example 61, 1-methyl-5-phenyl-6-((1-phenylethyl)thio)-1H-pyrazolo[3,4-d]pyrimidin-4(5H)-one], on ALDH2, the remaining activity at 20 µM was 107%. Moreover, in the data set on OVSAHO, the “OVSAHO Cell Viability (30 μM) % CD133 + % ctrl” value is 88% ctrl and the “OVSAHO Cell Viability (30 μM) Total Cell % ctrl” value turned out to be 7% ctrl.

Take `O=c1c2cn[nH]c2nc(SCc2cccc(F)c2)n1-c1ccccc1` [Example 2, 6-((3-fluorobenzyl)thio)-5-phenyl-1H-pyrazolo[3,4-d]pyrimidin-4(5H)-one]: in the data set with OVSAHO, the “OVSAHO Cell Viability (50 μM) % CD133 + % ctrl” value is reported as 58 % ctrl and the “OVSAHO Cell Viability (50 μM) Total Cell % ctrl” value is listed as 39 % ctrl.

`Cc1ccccc1-n1c(SCc2cccc(F)c2)nc2c(cnn2C)c1=O` [Example 3, 6-((3-fluorobenzyl)thio)-1-methyl-5-(o-tolyl)-1H-pyrazolo[3,4-d]pyrimidin-4(5H)-one]: the IC50 at ALDH1A2 (setting [1]) is above 20 µM.

Take `Cc1ccccc1-n1c(SCc2cccc(F)c2)nc2c(cnn2C2COC2)c1=O` [Example 9, 6-((3-fluorobenzyl)thio)-1-(oxetan-3-yl)-5-(o-tolyl)-1H-pyrazolo[3,4-d]pyrimidin-4(5H)-one]: the remaining activity at 20 µM at ALDH1A2 amounted to 31%. Also, in the data set on OVSAHO, the “OVSAHO Cell Viability (50 μM) % CD133 + % ctrl” value was found to be 50 % ctrl and the “OVSAHO Cell Viability (50 μM) Total Cell % ctrl” value stood at 22 % ctrl.

For `Cc1ccccc1-n1c(SCc2cccc(F)c2)nc2c(cnn2CC2COC2)c1=O` [Example 11, 6-((3-fluorobenzyl)thio)-1-(oxetan-3-ylmethyl)-5-(o-tolyl)-1H-pyrazolo[3,4-d]pyrimidin-4(5H)-one], in the data set with OVSAHO, the “OVSAHO Cell Viability (50 μM) % CD133 + % ctrl” value was determined as 69 % ctrl and the “OVSAHO Cell Viability (50 μM) Total Cell % ctrl” value is 30 % ctrl.

`Cn1cc2c(=O)n(-c3ccccc3)c(SCc3cccc(F)c3)nc2n1` [Example 13, 6-((3-fluorobenzyl)thio)-2-methyl-5-phenyl-2H-pyrazolo[3,4-d]pyrimidin-4(5H)-one]: in the data set on OVSAHO, the “OVSAHO Cell Viability (50 μM) % CD133 + % ctrl” value was 83 % ctrl and the “OVSAHO Cell Viability (50 μM) Total Cell % ctrl” value stood at 69 % ctrl.

Consider `Cn1ncc2c(=O)n(-c3ccccc3)c(SCc3cccc(F)c3)nc21` [Example 27, 6-((3-fluorobenzyl)thio)-1-methyl-5-phenyl-1H-pyrazolo[3,4-d]pyrimidin-4(5H)-one], for which the “ALDH2 inhibition at 20 μM (N.I.)” value at ALDH2 is “N.I”.

As for `Cn1ncc2c(=O)n(-c3cccnc3)c(SCc3cccc(F)c3)nc21` [Example 31, 6-((3-fluorobenzyl)thio)-1-methyl-5-(pyridin-3-yl)-1H-pyrazolo[3,4-d]pyrimidin-4(5H)-one], in the data set on OVSAHO, the “OVSAHO Cell Viability (50 μM) % CD133 + % ctrl” value is reported as 81 % ctrl and the “OVSAHO Cell Viability (50 μM) Total Cell % ctrl” value is 79 % ctrl.

For the molecule `Cn1ncc2c(=O)n(-c3ccncc3)c(SCc3cccc(F)c3)nc21` [Example 32, 6-((3-fluorobenzyl)thio)-1-methyl-5-(pyridin-4-yl)-1H-pyrazolo[3,4-d]pyrimidin-4(5H)-one], the IC50 on ALDH1A1 (setting [1]) came out at 5.2 µM. In the data set on OVSAHO, the “OVSAHO Cell Viability (50 μM) % CD133 + % ctrl” value turned out to be 75 % ctrl and the “OVSAHO Cell Viability (50 μM) Total Cell % ctrl” value stood at 66 % ctrl.

`Cn1ncc2c(=O)n(-c3ccccn3)c(SCc3cccc(F)c3)nc21` [Example 34, 6-((3-fluorobenzyl)thio)-1-methyl-5-(pyridin-2-yl)-1H-pyrazolo[3,4-d]pyrimidin-4(5H)-one]: in the data set with OVSAHO, the “OVSAHO Cell Viability (50 μM) % CD133 + % ctrl” value worked out at 81 % ctrl and the “OVSAHO Cell Viability (50 μM) Total Cell % ctrl” value came to 77 % ctrl.

On to `Cn1ncc2c(=O)n(Cc3ccccc3)c(SCc3cccc(F)c3)nc21` [Example 36, 5-benzyl-6-((3-fluorobenzyl)thio)-1-methyl-1H-pyrazolo[3,4-d]pyrimidin-4(5H)-one], for which the “ALDH2 inhibition at 20 μM (N.I.)” value on ALDH2 is listed as “N.I”. In the data set with OVSAHO, the “OVSAHO Cell Viability (50 μM) % CD133 + % ctrl” value turned out to be 5 % ctrl and the “OVSAHO Cell Viability (50 μM) Total Cell % ctrl” value is listed as 12 % ctrl.

As to `Cn1c(SCc2cccc(F)c2)nc2c(cnn2C)c1=O` [Example 37, 6-((3-fluorobenzyl)thio)-1,5-dimethyl-1H-pyrazolo[3,4-d]pyrimidin-4(5H)-one], in the data set with OVSAHO, the “OVSAHO Cell Viability (50 μM) % CD133 + % ctrl” value worked out at 88 % ctrl and the “OVSAHO Cell Viability (50 μM) Total Cell % ctrl” value is reported as 7 % ctrl.

Turning to `Cn1ncc2c(=O)n(-c3cccc(Cl)c3)c(SCc3cccc(F)c3)nc21` [Example 42, 5-(3-chlorophenyl)-6-((3-fluorobenzyl)thio)-1-methyl-1H-pyrazolo[3,4-d]pyrimidin-4(5H)-one], the remaining activity at 20 µM on ALDH2 came to 137%.

For the molecule `Cn1ncc2c(=O)n(-c3ccc(Cl)cc3)c(SCc3cccc(F)c3)nc21` [Example 43, 5-(4-chlorophenyl)-6-((3-fluorobenzyl)thio)-1-methyl-1H-pyrazolo[3,4-d]pyrimidin-4(5H)-one], at ALDH2, the remaining activity at 20 µM amounted to 153%.

Take `Cn1ncc2c(=O)n(-c3ccccc3)c(/C=C/c3cccc(F)c3)nc21` [Example 47, (E)-6-(3-fluorostyryl)-1-methyl-5-phenyl-1H-pyrazolo[3,4-d]pyrimidin-4(5H)-one]: the values for the remaining activity at 20 µM on ALDH1A1, on ALDH1A2 and on ALDH2 were 28%, 15% and 110%, respectively.

On to `Cn1ncc2c(=O)n(-c3ccccc3)c(CNc3cccc(F)c3)nc21` [Example 49, 6-(((3-fluorophenyl)amino)methyl)-1-methyl-5-phenyl-1H-pyrazolo[3,4-d]pyrimidin-4(5H)-one], for which, on ALDH2, the remaining activity at 20 µM is 89%.

On to `Cn1ncc2c(=O)n(-c3ccccc3)c(CSc3cccc(F)c3)nc21` [Example 51, 6-(((3-fluorophenyl)thio)methyl)-1-methyl-5-phenyl-1H-pyrazolo[3,4-d]pyrimidin-4(5H)-one], for which the remaining activity at 20 µM on ALDH1A1 amounted to 25%; on ALDH2 it was 92%.

Regarding `Cn1ncc2c(=O)n(-c3ccccc3)c(OCc3cccc(F)c3)nc21` [Example 60, 6-((3-fluorobenzyl)oxy)-1-methyl-5-phenyl-1H-pyrazolo[3,4-d]pyrimidin-4(5H)-one], on ALDH2, the remaining activity at 20 µM is 91%. For the same molecule, in the data set with OVSAHO, the “OVSAHO Cell Viability (30 μM) % CD133 + % ctrl” value turned out to be 76% ctrl and the “OVSAHO Cell Viability (30 μM) Total Cell % ctrl” value is listed as 35% ctrl.

As to `CN(Cc1nc2c(cnn2C)c(=O)n1-c1ccccc1)c1cccc(F)c1` [Example 62, 6-(((3-fluorophenyl)(methyl)amino)methyl)-1-methyl-5-phenyl-1H-pyrazolo[3,4-d]pyrimidin-4(5H)-one], the remaining activity at 20 µM at ALDH2 stood at 103%. Moreover, in the data set on OVSAHO, the “OVSAHO Cell Viability (30 μM) % CD133 + % ctrl” value came to 96% ctrl and the “OVSAHO Cell Viability (30 μM) Total Cell % ctrl” value was 65% ctrl.

As to `CC(Sc1nc2nn(CC3COC3)cc2c(=O)n1-c1ccccc1)c1ccccc1` (stereo not shown) [Example 64, 2-(oxetan-3-ylmethyl)-5-phenyl-6-((1-phenylethyl)thio)-2H-pyrazolo[3,4-d]pyrimidin-4(5H)-one], the remaining activity at 20 µM at ALDH2 was 100%.

Regarding `C[C@@H](Sc1nc2c(cnn2C)c(=O)n1-c1ccccc1)c1ccccc1` [Example 65, (R)-1-methyl-5-phenyl-6-((1-phenylethyl)thio)-1H-pyrazolo[3,4-d]pyrimidin-4(5H)-one], the remaining activity at 20 µM at ALDH2 amounted to 100%. In addition, in the data set on OVSAHO, the “OVSAHO Cell Viability (30 μM) % CD133 + % ctrl” value came to 117% ctrl and the “OVSAHO Cell Viability (30 μM) Total Cell % ctrl” value is 75% ctrl.

As for `CC(Oc1nc2c(cnn2C)c(=O)n1-c1ccccc1)c1ccccc1` (stereo not shown) [Example 66, 1-methyl-5-phenyl-6-(1-phenylethoxy)-1H-pyrazolo[3,4-d]pyrimidin-4(5H)-one], the remaining activity at 20 µM on ALDH2 came to 92%. In the data set with OVSAHO, the “OVSAHO Cell Viability (30 μM) Total Cell % ctrl” value is listed as 76% ctrl.
